These are literature values, as cited in publication PMC8466373, “Plant-Derived and Dietary Hydroxybenzoic Acids—A Comprehensive Study of Structural, Anti-/Pro-Oxidant, Lipophilic, Antimicrobial, and Cytotoxic Activity in MDA-MB-231 and MCF-7 Cell Lines” (Nutrients, 2021).

The structures appear in SMILES notation.

The test system of this series is Chrysosporium species. The following applies: concentration of 30 mg/mL; cited from earlier work.

For the compound `O=C(O)c1cccc(O)c1O` [2,3-DHB, 2,3-Dihydroxybenzoic acid], the zone of inhibition (usually the extent of the growth-free halo in a diffusion test) is given as 25 mm.
